For this experiment, the target named is T1, mGlyT-1b (Mus musculus, UniProt P28571).
T1 construct: host or cells: Flp-in CHO cells, stably transfected
T1 sequence (P28571 1-651 isoform P28571-2): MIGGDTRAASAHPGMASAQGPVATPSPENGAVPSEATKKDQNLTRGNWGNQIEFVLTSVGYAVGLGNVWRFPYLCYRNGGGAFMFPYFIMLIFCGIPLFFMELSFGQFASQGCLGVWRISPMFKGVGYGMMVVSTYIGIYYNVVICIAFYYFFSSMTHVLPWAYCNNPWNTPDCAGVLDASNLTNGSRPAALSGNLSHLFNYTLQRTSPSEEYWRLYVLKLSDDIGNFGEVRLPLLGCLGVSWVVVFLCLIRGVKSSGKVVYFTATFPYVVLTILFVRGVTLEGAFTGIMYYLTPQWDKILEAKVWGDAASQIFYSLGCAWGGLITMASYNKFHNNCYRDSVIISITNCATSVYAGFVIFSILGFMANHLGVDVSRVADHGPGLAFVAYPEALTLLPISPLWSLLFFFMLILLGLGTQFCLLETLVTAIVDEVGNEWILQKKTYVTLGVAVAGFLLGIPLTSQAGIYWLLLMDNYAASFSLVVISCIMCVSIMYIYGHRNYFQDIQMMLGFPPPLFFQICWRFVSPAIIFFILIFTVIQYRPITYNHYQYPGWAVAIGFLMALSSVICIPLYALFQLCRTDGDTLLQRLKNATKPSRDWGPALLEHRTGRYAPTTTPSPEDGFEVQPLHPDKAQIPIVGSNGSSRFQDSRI
Briefly: Glycine uptake inhibition assay (mGlyT-1b). Format: cell-based. The following applies: inhibition of [3H]-glycine uptake in Flp-in-CHO cells stably transfected with mGlyT1b cDNA; 20 min at 22° C. As for the experimental part:
DMEM complete medium: Nutrient mixture F-12 (Gibco Life-technologies), fetal bovine serum (FBS) 5%, (Gibco life technologies), Penicillin/Streptomycin 1% (Gibco life technologies), Hygromycin 0.6 mg/ml (Gibco life technologies), Glutamine 1 mM Gibco life technologies)
Uptake buffer (UB): 150 mM NaCl, 10 mM Hepes-Tris, pH 7.4, 1 mM CaCl2, 2.5 mM KCl, 2.5 mM MgSO4, 10 mM (+) D-glucose. Flp-in™—CHO (Invitrogen Cat n° R758-07)cells stably transfected with mGlyT1b cDNA.
Glycine uptake inhibition assay (mGlyT-1b)
On Day 1 mammallian cells, (Flp-in™—CHO), transfected with mGlyT-1b cDNA, were plated at the density of 40,000 cells/well in complete F-12 medium, without hygromycin in 96-well culture plates. On day 2, the medium was aspirated and the cells were washed twice with uptake buffer (UB). The cells were then incubated for 20 min at 22° C. with either (i) no potential competitor, (ii) 10 mM non-radioactive glycine, (iii) a concentration of a potential inhibitor. A range of concentrations of the potential inhibitor was used to generate data for calculating the concentration of inhibitor resulting in 50% of the effect (e.g. IC50, the concentration of the competitor inhibiting glycine uptake of 50%). A solution was then immediately added containing [^3H]-glycine 60 nM (11-16 Ci/mmol) and 25 μM non-radioactive glycine. The plates were incubated with gentle shaking and the reaction was stopped by aspiration of the mixture and washing (three times) with ice-cold UB. The cells were lysed with scintillation liquid, shaken 3 hours and the radioactivity in the cells was counted using a scintillation counter.
`CC(=O)c1ccc(N2CCN(C(=O)c3cc([N+](=O)[O-])ccc3NC(C)(C)C)CC2)c(F)c1` [Example 176, 1-{3-Fluoro-4-[4-(2-tert.-butylamino-5-nitro-benzoyl)-piperazin-1-yl]-phenyl}-ethanone] yielded a half-inhibitory concentration (IC50) of 20 nM.
The compound `CC(=O)c1ccc(N2CCN(C(=O)c3cc(S(C)(=O)=O)ccc3N3CCCC3)CC2)c(F)c1` [Example 83, 1-{3-Fluoro-4-[4-(5-methanesulfonyl-2-pyrrolidin-1-yl-benzoyl)-piperazin-1-yl]-phenyl}-ethanone] yielded an IC50 of 19 nM.
With `CS(=O)(=O)c1ccc(N2CCCCC2)c(C(=O)N2CCN(c3ccc(C#N)c(F)c3)CC2)c1` [Example 217, 2-Fluoro-4-[4-(5-methanesulfonyl-2-piperidin-1-yl-benzoyl)-piperazin-1-yl]-benzonitrile], half-maximal inhibition (IC50) required 16 nM.
`CNS(=O)(=O)c1ccc(N2CCOCC2)c(C(=O)N2CCN(c3ccc(C(F)(F)F)cc3)CC2)c1` [Example 131, N-Methyl-4-morpholin-4-yl-3-[4-(4-trifluoromethyl-phenyl)-piperazine-1-carbonyl]-benzenesulfonamide] came in with an IC50 of 8 nM.
Consider `CNS(=O)(=O)c1ccc(N2CCCCC2)c(C(=O)N2CCN(c3ccc(C#N)cc3)CC2)c1` [Example 246, 3-[4-(4-Cyano-phenyl)-piperazine-1-carbonyl]-N-methyl-4-piperidin-1-yl-benzenesulfonamide], for which 11 nM corresponded to half-maximal inhibition (IC50).
`CNS(=O)(=O)c1ccc(N2CCCC2)c(C(=O)N2CCN(c3ccc(C(F)(F)F)cc3)CC2)c1` [Example 129, N-Methyl-4-pyrrolidin-1-yl-3-[4-(4-trifluoromethyl-phenyl)-piperazine-1-carbonyl]-benzenesulfonamide]: the IC50 amounted to 5 nM.
Under `CC(=O)c1ccc(N2CCN(C(=O)c3cc([N+](=O)[O-])ccc3N3CCCCCC3)CC2)c(F)c1` [Example 28, 1-{4-[4-(2-Azepan-1-yl-5-nitro-benzoyl)-piperazin-1-yl]-3-fluoro-phenyl}-ethanone] stands 3.3 nM.
Turning to `CNS(=O)(=O)c1ccc(N2CCCCC2)c(C(=O)N2CCN(c3ccc(C#N)c(F)c3)CC2)c1` [Example 248, 3-[4-(4-Cyano-3-fluoro-phenyl)-piperazine-1-carbonyl]-N-methyl-4-piperidin-1-yl-benzenesulfonamide], inhibition was half-maximal at 10 nM (IC50).
`CNS(=O)(=O)c1ccc(N2CCCC2)c(C(=O)N2CCN(c3ccc(C#N)cc3F)CC2)c1` [Example 234, 3-[4-(4-Cyano-2-fluoro-phenyl)-piperazine-1-carbonyl]-N-methyl-4-pyrrolidin-1-yl-benzenesulfonamide] registered an IC50 of 10 nM.
`CNS(=O)(=O)c1ccc(N2CCCC2)c(C(=O)N2CCN(c3ccc(C#N)cc3)CC2)c1` [Example 233, 3-[4-(4-Cyano-phenyl)-piperazine-1-carbonyl]-N-methyl-4-pyrrolidin-1-yl-benzenesulfonamide] displayed an IC50 of 16 nM.
In turn, `CNS(=O)(=O)c1ccc(N2CCCCC2)c(C(=O)N2CCN(c3ccc(C(F)(F)F)c(F)c3)CC2)c1` [Example 251, 3-[4-(3-Fluoro-4-trifluoro-methyl-phenyl)-piperazine-1-carbonyl]-N-methyl-4-piperidin-1-yl-benzenesulfonamide] returned an IC50 of 19 nM.
Compound `CC(=O)c1ccc(N2CCN(C(=O)c3cc([N+](=O)[O-])ccc3N3CCSCC3)CC2)c(F)c1` [Example 42, 1-{3-Fluoro-4-[4-(5-nitro-2-thiomorpholin-4-yl-benzoyl)-piperazin-1-yl]-phenyl}-ethanone] gave an IC50 of 3.5 nM.
`CS(=O)(=O)c1ccc(N2CCCCC2)c(C(=O)N2CCN(c3ccc(C(F)(F)F)cc3F)CC2)c1` [Example 219, [4-(2-Fluoro-4-trifluoromethyl-phenyl)piperazin-1-yl]-(5-methanesulfonyl-2-piperidin-1-yl-phenyl)-methanone] had an IC50 of 17 nM.
On to `CC(=O)c1ccc(N2CCN(C(=O)c3cc(S(C)(=O)=O)ccc3N3CCCCCC3)CC2)c(F)c1` [Example 76, 1-{4-[4-(2-Azepan-1-yl-5-methanesulfonyl-benzoyl)-piperazin-1-yl]-3-fluoro-phenyl}-ethanone], for which the IC50 came to 19 nM.
In the case of `CNS(=O)(=O)c1ccc(N2CCCC2)c(C(=O)N2CCN(c3ccc(C(C)=O)cc3F)CC2)c1` [Example 133, 3-[4-(4-Acetyl-2-fluoro-phenyl)-piperazine-1-carbonyl]-N-methyl-4-pyrrolidin-1-yl-benzenesulfonamide], the IC50 was 9 nM.
Regarding `CC(=O)c1ccc(N2CCN(C(=O)c3cc([N+](=O)[O-])ccc3NCC(C)C)CC2)c(F)c1` [Example 19, 1-{3-Fluoro-4-[4-(2-isobutylamino-5-nitro-benzoyl)-piperazin-1-yl]-phenyl}-ethanone], inhibition was half-maximal at 3 nM (IC50).
Turning to `CC(=O)c1ccc(N2CCN(C(=O)c3cc([N+](=O)[O-])ccc3N3CCCC(C)C3)CC2)c(F)c1` (centres unmarked) [Example 37, 1-(3-Fluoro-4-{4-[2-(3-methyl-piperidin-1-yl)-5-nitro-benzoyl]-piperazin-1-yl}-phenyl)-ethanone], the IC50 was 7 nM.
`CC(=O)c1ccc(N2CCN(C(=O)c3cc([N+](=O)[O-])ccc3N3CCCC3C)CC2)c(F)c1` (centres unmarked) [Example 38, 1-(3-Fluoro-4-{4-[2-(2-methyl-pyrrolidin-1-yl)-5-nitro-benzoyl]-piperazin-1-yl}-phenyl)-ethanone] showed an IC50 of 8 nM.
As to `CCN(CC)c1ccc([N+](=O)[O-])cc1C(=O)N1CCN(c2ccc(C(C)=O)cc2F)CC1` [Example 11, 1-{4-[4-(2-Diethylamino-5-nitro-benzoyl)-piperazin-1-yl]-3-fluoro-phenyl}-ethanone], the IC50 worked out at 15 nM.
Take `CNS(=O)(=O)c1ccc(N2CCCCC2)c(C(=O)N2CCN(c3ccc(C(F)(F)F)cc3F)CC2)c1` [Example 250, 3-[4-(2-Fluoro-4-trifluoromethyl-phenyl)-piperazine-1-carbonyl]-N-methyl-4-piperidin-1-yl-benzenesulfonamide]: the IC50 amounted to 15 nM.
The result for `CS(=O)(=O)c1ccc(N2CCCCC2)c(C(=O)N2CCN(c3ccc(C(F)(F)F)c(F)c3)CC2)c1` [Example 220, [4-(3-Fluoro-4-trifluoromethyl-phenyl)piperazin-1-yl]-(5-methanesulfonyl-2-piperidin-1-yl-phenyl)-methanone] reads 19 nM.
`CC(=O)c1ccc(N2CCN(C(=O)c3cc([N+](=O)[O-])ccc3NCC3CC3)CC2)c(F)c1` [Example 4, 1-(4-{4-[2-(Cyclopropylmethyl-amino)-5-nitro-benzoyl]-piperazin-1-yl}-3-fluoro-phenyl)-ethanone] showed an IC50 of 13 nM.
As for `CC(=O)c1ccc(N2CCN(C(=O)c3cc([N+](=O)[O-])ccc3N3CCCCC3C)CC2)c(F)c1` (centres unmarked) [Example 35, 1-(3-Fluoro-4-{4-[2-(2-methyl-piperidin-1-yl)-5-nitro-benzoyl]-piperazin-1-yl}-phenyl)-ethanone], the IC50 was determined as 6 nM.
On to `CNS(=O)(=O)c1ccc(N2CCCC2)c(C(=O)N2CCN(c3ccc(C(F)(F)F)c(F)c3)CC2)c1` [Example 236, 3-[4-(3-Fluoro-4-trifluoromethyl-phenyl)-piperazine-1-carbonyl]-N-methyl-4-pyrrolidin-1-yl-benzenesulfonamide], for which inhibition was half-maximal at 4 nM (IC50).
Under `CNS(=O)(=O)c1ccc(N2CCCC2)c(C(=O)N2CCN(c3ccc(C(F)(F)F)cc3F)CC2)c1` [Example 235, 3-[4-(2-Fluoro-4-trifluoro-methyl-phenyl)-piperazine-1-carbonyl]-N-methyl-4-pyrrolidin-1-yl-benzenesulfonamide] stands 6.5 nM.
In the case of `CC(=O)c1ccc(N2CCN(C(=O)c3cc([N+](=O)[O-])ccc3NC3CCC3)CC2)c(F)c1` [Example 20, 1-{4-[4-(2-Cyclobutylamino-5-nitro-benzoyl)-piperazin-1-yl]-3-fluoro-phenyl}-ethanone], it took 2.1 nM to reach half-maximal inhibition (IC50).

(Values after US7427612B2, “Benzoyl-piperazine derivatives” (Hoffmann-La Roche Inc., priority 2003, dated 2008).)
